Test system: HuH-7 cells (human hepatoma cell line)
Assay: Expression efficiency of luciferase plasmid DNA delivered by carrier compositions in HuH-7 cells
Format: cell-based
Conditions: 24 hours after addition of composition, carriers of Examples 9 to 13 with rising content of the Example 2 derivative, compared with carrier of Comparative Example 1, FIG. 1
Experimental: By adding 50 μL of 10% maltose solution to 1 μg of the plasmid DNA encording luciferase gene, 50 μL of the plasmid solution containing the plasmid at 20 μg/mL was prepared. In addition, by adding 44 μL of 10% maltose solution to 6 μL of the dispersion liquid of the carrier according to Example 9 to 13 or Comparative Example 1, 50 μL of the diluted solution of the carrier at 600 μg/mL was prepared.
50 μL of the above nucleic acid solution was added to 50 μL of the above diluted solution of the carrier, and then mixed gently. Then, the sample was left at room temperature for 15 minutes to prepare 100 μL of the composition solution containing the above plasmid at 10 μg/mL.
HuH-7 cells (human hepatoma cell line) were seeded on a 96-well plate at 1×10^4 cells/well, and were incubated for 18 hours at 37° C. under 5% CO2. Then, 10 μL of the composition containing the carrier according to Example 9 to 13 or Comparative Example 1 prepared above (1) was added per well, and incubation was further continued. After 24 hours from addition of the composition, luciferase activity was measured. Luciferase activity was measured by detecting the bioluminescence with Top Count (manufactured by Packard), using Steady Glo Luciferase Assay System (manufactured by Promega). Meanwhile, a comparative control was a cell given the composition containing the carrier according to Comparative Example 1.

CCCCCCCC/C=C\CCCCCCCC(=O)OC[C@H](COP(=O)(O)OCCOCCOCCOCCOCCNC[C@H](O)[C@@H](O)[C@H](O[C@@H]1O[C@H](CO)[C@H](O)[C@H](O)[C@H]1O)[C@H](O)CO)OC(=O)CCCCCCC/C=C\CCCCCCCC [Example 2, L-α-dioleoylphosphatidyl{14-N-(1-deoxylactito-1-yl)amino-3,6,9,12-tetraoxa}tetradecanol]
expression efficiency of luciferase gene (luciferase activity): increased as compared with that in the comparative control as a function of concentration of the derivative of the present invention

— US7655768B2, “Galactose derivative, drug carrier and medicinal composition” (Nippon Shinyaku Co., Ltd., priority 2004, dated 2010)
